From article PMC7997574, “Lead Optimization of Benzoxazolone Carboxamides as Orally Bioavailable and CNS Penetrant Acid Ceramidase Inhibitors” (Journal of Medicinal Chemistry, 2020)
Values after ≈ are worked out from the molar mass of the structure shown. Where a name gives a salt, the structure may show the parent alone. Read-outs that look alike come from different tables or passages of the source.

Key:
[1] = Aqueous kinetic solubility assay; assay type: physicochemical; conditions: PBS, pH 7.4
Procedure: The aqueous kinetic solubility was determined from a 10 mM MeCN stock solution of test compound in Phosphate-Buffered Saline (PBS) at pH 7.4. The study was performed by incubation of an aliquot of 10 mM MeCN stock solution in PBS (pH 7.4) at a target concentration of 250 μM. The incubation was carried out under shaking at 25 °C for 1 h followed by centrifugation at 21100 × g for 30 min. The supernatant was analyzed by UPLC/MS for the quantification of the dissolved compound (in μM) by UV at a specific wavelength (215 nm). […] The UPLC/MS analyses were performed on a Waters ACQUITY UPLC/MS system consisting of a single quadrupole detector (SQD) Mass Spectrometer (MS) equipped with an Electrospray Ionization (ESI) interface and a Photodiode Array Detector (PDA). The PDA range was 210–400 nm. ESI in positive mode was used in the mass scan range of 100–650 Da. The analyses were run on an ACQUITY UPLC BEH C18 column (50 × 2.1 mm ID, particle size 1.7 μm) with a VanGuard BEH C18 precolumn (5 × 2.1 mm ID, particle size 1.7 μm), using 10 mM NH4OAc in H2O at pH 5 adjusted with AcOH (A) and 10 mM NH4OAc in MeCN/H2O (95:5) at pH 5 (B) as the mobile phase. Values are reported as mean values of ≥2 experiments performed.

[2] = In vitro plasma stability study; assay type: in vitro ADME; conditions: mouse plasma; read-out: m-plasma t1/2
Procedure: Freshly prepared 10 mM MeCN stock solution of test compound was diluted 50-fold with DMSO/H2O (1:1) and incubated at 37 °C for 2 h with mouse plasma added in 5% DMSO (preheated at 37 °C for 10 min). The final concentration was 2 μM. At each time point (0, 5, 15, 30, 60, and 120 min), 50 μL of incubation mixture was diluted with 200 μL of cold MeCN spiked with 200 nM internal standard followed by centrifugation at 3300 × g for 20 min. The supernatant was further diluted with H2O (1:1) for analysis. The concentration of test compound was quantified by LC/MS/MS on a Waters ACQUITY UPLC/MS TQD system consisting of a TQD MS equipped with an ESI interface. The analyses were run on an ACQUITY UPLC BEH C18 (50 × 2.1 mm ID, particle size 1.7 μm) with a VanGuard BEH C18 precolumn (5 × 2.1 mm ID, particle size 1.7 μm) at 40 °C. For each compound, the appropriate mobile phase was chosen. ESI was applied in positive mode. The response factors, calculated on the basis of the internal standard peak area, were plotted over time. When possible, response vs time profiles were fitted with Prism (GraphPad Software, Inc., USA) to estimate compound t1/2 in plasma. Values are the mean of at least two independent experiments performed in two technical replicates.

[3] = In vitro microsomal stability study; assay type: in vitro ADME; conditions: mouse liver microsomes
Procedure: Freshly prepared 10 mM MeCN stock solution of test compound was preincubated at 37 °C for 15 min with mouse liver microsomes added in 0.1 M Tris HCl buffer (pH 7.4). The final concentration was 4.6 μM. After preincubation, the cofactors (NADPH, G6P, G6PDH, and MgCl2 predissolved in 0.1 M Tris HCl) were added to the incubation mixture, and the incubation was continued at 37 °C for 1 h. At each time point (0, 5, 15, 30, and 60 min), 30 μL of incubation mixture was diluted with 200 μL of cold MeCN spiked with 200 nM internal standard followed by centrifugation at 3300 × g for 15 min. The supernatant was further diluted with H2O (1:1) for analysis. The concentration of the test compound was quantified by LC/MS/MS on a Waters ACQUITY UPLC/MS TQD system consisting of a TQD MS equipped with an ESI interface. The analyses were run on an ACQUITY UPLC BEH C18 (50 × 2.1 mm ID, particle size 1.7 μm) with a VanGuard BEH C18 precolumn (5 × 2.1 mm ID, particle size 1.7 μm) at 40 °C. For each compound, the appropriate mobile phase was chosen. ESI was applied in positive mode. The percentage of test compound remaining at each time point relative to t = 0 was calculated. t1/2 was determined by a one-phase decay equation using a nonlinear regression of compound concentration vs time. Values are the mean of at least two independent experiments performed in two technical replicates.

AC = target: T1, AC (Homo sapiens, UniProt Q13510); test: Fluorogenic hAC assay on hAC-enriched lysate of HEK293 cells; assay type: biochemical; set-up: expressed in transfected cells
T1 sequence (Q13510 22-395): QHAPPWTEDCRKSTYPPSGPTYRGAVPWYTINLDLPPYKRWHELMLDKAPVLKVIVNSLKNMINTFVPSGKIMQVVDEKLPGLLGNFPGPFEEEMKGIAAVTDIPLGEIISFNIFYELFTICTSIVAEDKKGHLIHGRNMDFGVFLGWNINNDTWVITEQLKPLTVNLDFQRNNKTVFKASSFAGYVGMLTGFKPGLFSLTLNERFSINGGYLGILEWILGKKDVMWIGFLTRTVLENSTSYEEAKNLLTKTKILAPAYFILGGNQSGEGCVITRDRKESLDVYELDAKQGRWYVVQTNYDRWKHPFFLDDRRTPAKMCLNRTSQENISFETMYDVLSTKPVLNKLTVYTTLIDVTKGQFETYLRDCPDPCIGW
Procedure: HEK293 cells stably expressing hAC were grown in Dulbecco’s modified Eagle medium (DMEM) containing 10% FBS, 1% glutamine, 1 mM sodium pyruvate, and 500 μg mL^–1 G418. Cells were harvested, and pellets were stored at −80 °C until lysosomal-enriched lysate preparation. Cells were suspended in 20 mM Tris HCl (pH 7.5) with 0.32 M sucrose, sonicated, and centrifuged at 800 × g for 30 min at 4 °C. Supernatants were then centrifuged at 12000 × g for 30 min at 4 °C. Pellets were resuspended in PBS (pH 7.4) and subjected to three freeze–thaw cycles at −80 °C. The suspension was finally centrifuged at 105000 × g for 1 h at 4 °C, and protein concentration was measured in the supernatant with the bicinchoninic acid based protein assay. This hAC-enriched preparation allowed us to further optimize the enzymatic assay and to use small amounts of lysate (2 μg per well) at a 5 μM substrate (Rbm14–12) around its KM (KM = 5.0 μM).
The assay was performed in Optiplate 96-well black plates, with each reaction well containing a mixture of 25 mM NaOAc buffer (pH 4.5) and a fixed amount of protein (2 μg) in a volume of 85 μL. After 10 min of preincubation with test compounds (diluted 20× from DMSO stock solutions at different concentrations), the fluorogenic probe was added (diluted 40× from EtOH stock solution, final concentration 5 μM). After 3 h of incubation at 37 °C, reactions were stopped with 50 μL of MeOH and 100 μL of a 2.5 mg mL^–1 NaIO4 fresh solution in 100 mM glycine/NaOH buffer (pH 10.6). The plates were further incubated for 2 h at 37 °C in the dark, and fluorescence intensities were measured at excitation/emission wavelengths of 355/460 nm. Negative control samples consisted of the same incubation mixture in the absence of protein-enriched extracts. Data were plotted as a function of compound concentrations. IC50 values were calculated by nonlinear regression analysis using GraphPad Prism 5 (GraphPad Software Inc., CA, USA) applying a standard slope curve fitting. The reported IC50 values are the mean of at least three independent experiments performed in three technical replicates.

[4] = hAC expressed in HEK-293 cells, read-out: hAC IC50 (μM)±SD
[5] = supplementary csv, read-out: hAC, IC50

| Compound | IC50 (AC; [4]) [µM] | IC50 (AC; [5]) [µM] | further results |
| --- | --- | --- | --- |
| CC(C)CNC(=O)n1c(=O)oc2cc(C3CCCCN3C)ccc21 (racemic) [compound 26, (±)-N-Isobutyl-6-(1-methyl-2-piperidyl)-2-oxo-1,3-benzoxazole-3-carboxamide] | 1.01 ± 0.432 | 1.19 ± 0.435 | solubility at 1 h [1]: 190 µM (≈ 63 µg/mL); half-life at 2 µM [2]: 30 min; half-life at 1 h, 4.6 µM ([3]; pH 7.4, read-out: m-LM t1/2): 15 min |
| CC(C)CNC(=O)n1c(=O)oc2cc(C3CCCN(C)C3)ccc21 (racemic) [compound 27, (±)-N-Isobutyl-6-(1-methyl-3-piperidyl)-2-oxo-1,3-benzoxazole-3-carboxamide] | 1.75 ± 0.705 | 1.62 ± 0.649 | solubility at 1 h [1]: > 250 µM; half-life at 2 µM [2]: 50 min; m-LM [% at 60 min] ([3]; % remaining at 60 min): 70%; half-life at 4.6 μM ([3]; pH 7.4, read-out: m-LM t1/2): > 60 min |
| O=C(NCCOCc1ccccc1)n1c(=O)oc2cc(-c3ccc(F)cc3)ccc21 [2d, N-(2-Benzyloxyethyl)-6-(4-fluorophenyl)-2-oxo-1,3-benzoxazole-3-carboxamide] | – | 4.7 ± 6.04 | – |
| CCCCCNC(=O)n1c(=O)oc2cc(-c3ccc(F)cc3)ccc21 [2e, 6-(4-Fluorophenyl)-2-oxo-N-pentyl-1,3-benzoxazole-3-carboxamide] | – | – | solubility at 1 h [1]: < 1 µM; IC50 (AC; read-out: hAC IC50): 0.06 µM |
| CCOCCNC(=O)n1c(=O)oc2cc(-c3ccc(F)cc3)ccc21 [2f, N-(2-Ethoxyethyl)-6-(4-fluorophenyl)-2-oxo-1,3-benzoxazole-3-carboxamide] | – | 2.3 | – |
| COCCCNC(=O)n1c(=O)oc2cc(-c3ccc(F)cc3)ccc21 [2g, 6-(4-Fluorophenyl)-N-(3-methoxypropyl)-2-oxo-1,3-benzoxazole-3-carboxamide] | – | 2.6 ± 0.176 | – |
| O=C1C(=O)N(C(=O)NCCCCc2ccccc2)c2ccccc21 [8c, 2,3-Dioxo-N-(4-phenylbutyl)indoline-1-carboxamide] | > 10 | – | – |
| O=C1Cc2ccccc2N1C(=O)NCCCCc1ccccc1 [8d, 2-Oxo-N-(4-phenylbutyl)indoline-1-carboxamide] | > 10 | – | – |
| CN1CCc2oc(=O)n(C(=O)NCCCCc3ccccc3)c2C1 [12c, 5-Methyl-2-oxo-N-(4-phenylbutyl)-6,7-dihydro-4H-oxazolo[4,5-c]pyridine-3-carboxamide Hydrochloride] | – | 0.516 ± 0.165 | – |
| O=C(NCCCCc1ccccc1)n1c2c(oc1=O)CCN(Cc1ccccc1)C2 [12d, 5-Benzyl-2-oxo-N-(4-phenylbutyl)-6,7-dihydro-4H-oxazolo[4,5-c]pyridine-3-carboxamide] | – | 0.436 ± 0.073 | – |
| CC(=O)N1CCc2oc(=O)n(C(=O)NCCCCc3ccccc3)c2C1 [12e, 5-Acetyl-2-oxo-N-(4-phenylbutyl)-6,7-dihydro-4H-oxazolo[4,5-c]pyridine-3-carboxamide] | – | 0.293 ± 0.107 | – |
| CN1CCC(c2ccc3[nH]c(=O)oc3c2)CC1 [21g, 6-(1-Methyl-4-piperidyl)-3H-1,3-benzoxazol-2-one] | – | – | inhibition of hAC (AC; tested at 1 and 10 μM): not able to inhibit hAC |

The next lines start with results.

| IC50 (AC; [4]) [µM] | IC50 (AC; [5]) [µM] | Compound | further results |
| --- | --- | --- | --- |
| 0.089 ± 0.054 | – | O=C(NCCCCc1ccccc1)n1c(=O)oc2cc(C3CCCCC3)ccc21 [22a, 6-Cyclohexyl-2-oxo-N-(4-phenylbutyl)-1,3-benzoxazole-3-carboxamide] | – |
| 0.068 ± 0.022 | – | O=C(NCCCCc1ccccc1)n1c(=O)oc2cc(C3CCOCC3)ccc21 [22b, 2-Oxo-N-(4-phenylbutyl)-6-tetrahydropyran-4-yl-1,3-benzoxazole-3-carboxamide] | – |
| 1.05 ± 0.312 | – | CCOCCNC(=O)n1c(=O)oc2cc(C3CCN(C)CC3)ccc21 [22l, N-(2-Ethoxyethyl)-6-(1-methyl-4-piperidyl)-2-oxo-1,3-benzoxazole-3-carboxamide] | – |
| 2.1 | – | CCC(C)NC(=O)n1c(=O)oc2cc(C3CCN(C)CC3)ccc21 (stereo not shown) [22n, 6-(1-Methyl-4-piperidyl)-2-oxo-N-sec-butyl-1,3-benzoxazole-3-carboxamide] | – |
| 0.08 ± 0.017 | – | O=C(NCCCCc1ccccc1)n1c(=O)oc2cc(N3CCCCC3)ccc21 [23a, 2-Oxo-N-(4-phenylbutyl)-6-piperidin-1-ium-1-yl-1,3-benzoxazole-3-carboxamide Hydrochloride] | – |
| 0.192 ± 0.087 | – | O=C(NCCCCc1ccccc1)n1c(=O)oc2cc(N3CCOCC3)ccc21 [23b, 6-Morpholino-2-oxo-N-(4-phenylbutyl)-1,3-benzoxazole-3-carboxamide] | – |
| 0.16 ± 0.014 | – | O=C(NCCCCc1ccccc1)n1c(=O)oc2cc(N3CCS(=O)(=O)CC3)ccc21 [23c, 6-(1,1-Dioxo-1,4-thiazinan-4-yl)-2-oxo-N-(4-phenylbutyl)-1,3-benzoxazole-3-carboxamide] | – |
| 0.211 ± 0.065 | – | CC(C)N1CCN(c2ccc3c(c2)oc(=O)n3C(=O)NCCCCc2ccccc2)CC1 [23h, 6-(4-Isopropylpiperazin-1-yl)-2-oxo-N-(4-phenylbutyl)-1,3-benzoxazole-3-carboxamide] | – |
| 0.127 ± 0.037 | – | CC(C)CN1CCN(c2ccc3c(c2)oc(=O)n3C(=O)NCCCCc2ccccc2)CC1 [23i, 6-(4-Isobutylpiperazin-1-Yl)-2-oxo-N-(4-phenylbutyl)-1,3-benzoxazole-3-carboxamide] | – |
